Experimental data taken from patent US11389415B2, “Methods of regulating cannabinoid receptor activity-related disorders and diseases” (The United States of America as represented by the …, priority 2012, dated 2022).
“Also recorded” adds a separate entry of the source.

Columns and labels:
HepG2 cells = assay: [3H]-Thymidine incorporation assay in HepG2 cells; type: cell-based, human; conditions: 1 μM, 24 h
Summary of the method: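 HepG2 and U87MG cells (~50,000/well) were treated 24 hours at 37° C with test compounds in serum-free medium, then labelled 16 hours with 1 μCi [3H]-thymidine. Cells were lysed in 0.1N NaOH and incorporation measured by scintillation counting, expressed as CPM relative to control cells.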

[1] = In vitro metabolic stability, human liver microsomes; type: in vitro ADME; conditions: 37° C.
Method: FIG. 10 presents the data from the in vitro metabolic stability study in which MNF was incubated (in duplicate) with active and heat-inactivated human (HLM) and rat (RLM) liver microsomes and cofactors at 37° C. Aliquots were removed at 0, 15, 30 and 60 minutes and the amount of test compound (MNF) remaining at each time point was determined by LC-MS/MS.

[2] = Dose escalation and 7-day repeat dose range finding study in Sprague-Dawley rats; type: in vivo, rat; conditions: for Gross Necropsy Observation: interim (Day 8) and terminal (Day 14), red: thymus, mandibular lymph node, black or necrosis: tail
Method: A single dose escalation study was performed to select dose levels for 7-day repeat dose study with IV administration in Sprague-Dawley rats. Dose levels were 0, 5, 10 and 25 mg/kg.

rat C6 glioma xenograft = assay: C6 tumor xenograft in mice, tumor growth; type: in vivo, mouse
Method: C6 tumor xenograft in mice. In order to assess the ability of MNF to induce regression of tumor growth in vivo, rat C6 glioma cells were trypsin-collected at confluency and were used to generate tumor xenografts. Athymic female nude mice (SWISS nu+/nu+) were obtained from Charles Rivers (L'Arbresle, France) and maintained under pathogen-free conditions with a 12 hours light/12 hours dark cycle. Animals were fed ad libitum with normal chow (supplier). Athymic nude mice were inoculated subcutaneously with […] containing 0.5×10^6 C6 glioma cells in the left flank and then were randomly divided into two groups of 10 animals each. Starting 3 days after cell inoculation, mice received daily intraperitoneal injection (10 μl·g-1 body weight) of vehicle or MNF (2 mg·kg-1) in 100 μM ascorbic acid in saline (vehicle) five days a week for 19 days. Animal survival was monitored daily, and tumor size was determined with the use of a caliper to measure the length (a) and width (b) and estimated as 4/3π×rl2×r2, where rl is the smaller and r 2 the larger radius. […] The mice were euthanized by cervical […], and tumor masses were removed, weighed and washed with cold PBS before being snap-frozen in liquid nitrogen. A second set of studies with 8-9 animals in both groups was repeated.

GPR55 = GPR55 (Homo sapiens, UniProt Q9Y2T6); assay: GPR55 internalization assay in hGPR55-HEK293 cells; type: cell-based; conditions: 1 μM pretreatment 45 minutes
Method: GPR55 internalization assay. Endocytosis of GPR55 was observed following a previously described protocol with minor modifications (Henstridge et al., Br. J. Pharmacol. 160: 604-614, 2010). Briefly, hGPR55-HEK293 cells were grown on Lab-Tek II CC2 chamber slides (Thermo Scientific Nunc, Rochester, N.Y.) for 48 hours in regular media and then were serum starved for 1 hour. A preincubation with 1:1000 rabbit HA antibody (Covance, Md.) was performed in the presence of vehicle (0.1% DMSO) or 1 μM MNF in serum-free media for 45 minutes at 37° C. in the CO2 incubator. Cells were then washed extensively with PBS and treated with 5 μM 01602 in serum-free media for 20 minutes at 37° C. in the CO2 incubator. Subsequently, cells were washed three times, fixed in fresh 3.7% paraformaldehyde in PBS (10 min), and incubated with anti-rabbit Alexa Fluor 488 antibody (Molecular Probes, Eugene, Oreg.; 1:1000, 30 minutes). Cells were washed and fixed for a second time prior to permeabilization with 0.2% Triton X-100 (5 minutes). Incubation with anti-rabbit Alexa Fluor 568 antibody (Molecular Probes; 1:1000, 30 minutes) was carried out to determine the extent of internalized GPR55-HA antibody complex. […]

PANC-1 cells = assay: Scratch wound-healing assay, PANC-1 cells; type: cell-based, human; conditions: PANC-1, 1 μM
Method: Scratch assays. These assays were carried out essentially as described previously (Fiori et al., Endocrinology 150: 2551-2560, 2009). In brief, cells were seeded in 12-well nontreated polystyrene cell culture plates with flat bottom (Greiner Bio-One, Monroe, N.C.). Once the cells became confluent, a scratch wound was made with a pipette tip and pictured immediately (time 0). […] Cell migration was examined at 12, 24, 36, 48 hours and 12, 18, 24, 48 hours after scratch for the HepG2 and PANC-1 cells, respectively. Images of the same field were taken every 3 hours to determine the rate of cell migration. Images were captured on an Axiovert 200 inverted microscope (Carl Zeiss, Thornwood, N.Y.) mounted with an AxioCam HRc digital camera (Carl Zeiss) and the measurement of scratch area was performed with ImageJ 1.46s software (National Institutes of Health, Bethesda, Md.). Each study was performed in duplicate dishes and repeated at least twice.

Chain of GPR55 (Q9Y2T6 whole entry): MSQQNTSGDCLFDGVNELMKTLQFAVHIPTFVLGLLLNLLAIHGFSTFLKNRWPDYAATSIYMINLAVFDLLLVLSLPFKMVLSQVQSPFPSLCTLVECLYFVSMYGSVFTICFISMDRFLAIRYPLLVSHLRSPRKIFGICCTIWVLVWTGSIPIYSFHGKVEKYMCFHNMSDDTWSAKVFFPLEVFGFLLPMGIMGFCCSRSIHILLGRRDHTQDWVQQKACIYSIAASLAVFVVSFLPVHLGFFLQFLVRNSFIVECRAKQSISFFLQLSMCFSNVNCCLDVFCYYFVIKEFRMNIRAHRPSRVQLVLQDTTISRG

Compound: COc1ccc(C[C@@H](C)NC[C@H](O)c2cc(O)cc(O)c2)c2ccccc12 [(R,R′)-MNF, (R,R′)-4′-methoxy-1-naphthylfenoterol]
- % Change in HepG2 cells ([3H]-thymidine incorporation) (HepG2 cells): −59.4%
- stability under the incubation conditions ([1]; heat-inactivated microsome controls): somewhat unstable under the incubation conditions
- metabolic stability, MNF levels ([1]; human liver microsomes and cofactors, 0-60 minutes): greater decrease in MNF levels
- Body Weight ([2]; Sprague Dawley rats, iv, 0, 5, 10, or 25 mg/kg/day, 7-day): comparable
- Clinical Pathology: increases in WBC, % Neut., % RET/REA, and PLC ([2]; high-dose males and females, Day 8 and Day 14): Increases: ~2-fold
- Gross Necropsy Observation ([2]; black discoloration or necrosis, tail): Discolored black
- Gross Necropsy Observation ([2]; red discoloration, thymus and lymph node): Discolored red:
- toxic effects ([2]; single dose escalation, IV, 0, 5, 10 and 25 mg/kg, Sprague-Dawley rats): Toxic effects were minimal
- average AUC±SEM (tumor volume over time, FIG. 19B) (rat C6 glioma xenograft; C6 tumor-bearing female nude mice, 2 mg/kg, five days a week for 19 days, n=19 (vehicle 5450±518)): 3217±265
- tumor volume compared with vehicle-treated group (rat C6 glioma xenograft; C6 xenograft in nude mice, 2 mg/kg intraperitoneal): Significant reduction in mean tumor volumes; also recorded: Significant reduction in tumor volume
- effect on O-1602-induced GPR55 internalization (GPR55): blocked by pretreatment with MNF
- cell motility, compound alone (PANC-1 cells): did not alter the constitutive rate of gap filling
- effect on AM251-induced motility (PANC-1 cells; AM251 1 μM): produced significant decrease in AM251-induced motility of PANC-1 cells
- effect on wound closure evoked by O-1602 (PANC-1 cells; O-1602 1 μM): inhibit the wound closure evoked by O-1602 in PANC-1 cells
